PMC7005745 (Scientific Reports, 2020)

What follows are compounds tested on yopE expression (T3SS). Conditions: not given.
Format: cell-based, Yersinia pseudotuberculosis

Compound | Inhibition of the T3SS (in words) | Inhibition of yopE expression (in words)
Oc1ccc([C@@H]2Cc3cc(O)cc4c3[C@H](c3cc(O)cc(O)c32)[C@@H](c2ccc(O)cc2)O4)cc1 (racemic) [compound 3, (±)-Ampelopsin B] | no or modest inhibition | 
(±)-Dehydro-ampelopsin B [compound 4] | no or modest inhibition | 
Anigopreissin A [compound 11] |  | dose-dependent inhibition

Same assay, conditions: 1–100 µM, Fig. 1a

Compound | Inhibition of yopE expression (in words)
Oc1ccc(/C=C\c2cc(O)cc3oc(-c4ccc(O)cc4)c(-c4cc(O)cc(O)c4)c23)cc1 [compound 8, Viniferifuran] | dose-dependent inhibition
Oc1ccc(-c2oc3ccc(/C=C/c4cc(O)cc(O)c4)cc3c2-c2cc(O)cc(O)c2)cc1 [compound 10, Dehydro-δ-viniferin] | dose-dependent inhibition

Same assay, conditions: combined yopE-lux and YopH phosphatase assay

Compound | Inhibition of the T3SS (in words)
Oc1ccc([C@H]2c3c(O)cc(O)cc3[C@H]3c4c(cc(O)cc4[C@@H]2O)O[C@@H]3c2ccc(O)cc2)cc1 (racemic) [compound 2, (±)-Ampelopsin A] | no or modest inhibition
Oc1ccc(/C=C\c2cc(O)cc3oc(-c4ccc(O)cc4)c(-c4cc(O)cc(O)c4)c23)cc1 [compound 8, Viniferifuran] | good inhibition

Same assay, conditions: read-out: E-lux IC50

Compound | IC50 [µM]
Oc1ccc([C@@H]2Cc3cc(O)cc4c3[C@H](c3cc(O)cc(O)c32)[C@@H](c2ccc(O)cc2)O4)cc1 (racemic) [compound 3, (±)-Ampelopsin B] | > 50
Oc1ccc(/C=C/c2cc(O)cc3c2[C@@H](c2cc(O)cc(O)c2)[C@H](c2ccc(O)cc2)O3)cc1 (racemic) [compound 6, (±)-ε-Viniferin] | > 50
Oc1ccc(/C=C/c2cc(O)cc3c2[C@@H](c2cc(O)cc(O)c2)[C@H](c2ccc(O)cc2)O3)cc1 (racemic) [compound 7, (±)-Cis-ε-viniferin (Omega-viniferin)] | > 50
C#CCOc1ccc(-c2oc3cc(O)cc(/C=C/c4ccc(O)cc4)c3c2-c2cc(O)cc(O)c2)cc1 [compound 13, Propagylated viniferifuran] | 6
(±)-Dehydro-ampelopsin B [compound 4] | 40
Anigopreissin A [compound 11] | 12

Same assay, conditions: yopE expression, YPIII(pIB102E-lux), T3S-inducing conditions, compounds 1–100 µM; read-out: E-lux IC50

Compound | IC50 [µM]
Oc1ccc([C@H]2c3c(O)cc(O)cc3[C@H]3c4c(cc(O)cc4[C@@H]2O)O[C@@H]3c2ccc(O)cc2)cc1 (racemic) [compound 2, (±)-Ampelopsin A] | > 50
Oc1ccc(/C=C/c2cc(O)cc3c2[C@@H](c2cc(O)cc(O)c2)[C@H](c2ccc(O)cc2)O3)cc1 [compound 5, (+)-ε-Viniferin] | > 50
Oc1ccc(/C=C\c2cc(O)cc3oc(-c4ccc(O)cc4)c(-c4cc(O)cc(O)c4)c23)cc1 [compound 8, Viniferifuran] | 10
Oc1ccc(-c2oc3ccc(/C=C/c4cc(O)cc(O)c4)cc3c2-c2cc(O)cc(O)c2)cc1 [compound 10, Dehydro-δ-viniferin] | 5
(-)-Hopeaphenol [compound 1, reference compound] | 10
(±)-δ-Viniferin [compound 9] | 29

The compounds below were run on YopH secretion (T3SS). Conditions: not given.
Format: cell-based, Yersinia pseudotuberculosis

Compound | IC50 [µM] | Inhibition of YopH secretion (in words)
Oc1ccc([C@@H]2Cc3cc(O)cc4c3[C@H](c3cc(O)cc(O)c32)[C@@H](c2ccc(O)cc2)O4)cc1 (racemic) [compound 3, (±)-Ampelopsin B] | 40 | 
Oc1ccc(/C=C/c2cc(O)cc3c2[C@@H](c2cc(O)cc(O)c2)[C@H](c2ccc(O)cc2)O3)cc1 (racemic) [compound 6, (±)-ε-Viniferin] | 30 | 
Oc1ccc(/C=C/c2cc(O)cc3c2[C@@H](c2cc(O)cc(O)c2)[C@H](c2ccc(O)cc2)O3)cc1 (racemic) [compound 7, (±)-Cis-ε-viniferin (Omega-viniferin)] | 48 | 
C#CCOc1ccc(-c2oc3cc(O)cc(/C=C/c4ccc(O)cc4)c3c2-c2cc(O)cc(O)c2)cc1 [compound 13, Propagylated viniferifuran] | 3 | 
(±)-Dehydro-ampelopsin B [compound 4] | 20 | 
Anigopreissin A [compound 11] | 6 | dose-dependent inhibition

Same assay, conditions: 1–100 µM, Fig. 1b

Compound | Inhibition of YopH secretion (in words)
Oc1ccc(/C=C\c2cc(O)cc3oc(-c4ccc(O)cc4)c(-c4cc(O)cc(O)c4)c23)cc1 [compound 8, Viniferifuran] | dose-dependent inhibition
Oc1ccc(-c2oc3ccc(/C=C/c4cc(O)cc(O)c4)cc3c2-c2cc(O)cc(O)c2)cc1 [compound 10, Dehydro-δ-viniferin] | dose-dependent inhibition

Same assay, conditions: YopH secretion, YPIII(pIB102E-lux), T3S-inducing conditions, compounds 1–100 µM

Compound | IC50 [µM]
Oc1ccc([C@H]2c3c(O)cc(O)cc3[C@H]3c4c(cc(O)cc4[C@@H]2O)O[C@@H]3c2ccc(O)cc2)cc1 (racemic) [compound 2, (±)-Ampelopsin A] | > 50
Oc1ccc(/C=C/c2cc(O)cc3c2[C@@H](c2cc(O)cc(O)c2)[C@H](c2ccc(O)cc2)O3)cc1 [compound 5, (+)-ε-Viniferin] | 15
Oc1ccc(/C=C\c2cc(O)cc3oc(-c4ccc(O)cc4)c(-c4cc(O)cc(O)c4)c23)cc1 [compound 8, Viniferifuran] | 4
Oc1ccc(-c2oc3ccc(/C=C/c4cc(O)cc(O)c4)cc3c2-c2cc(O)cc(O)c2)cc1 [compound 10, Dehydro-δ-viniferin] | 4
(-)-Hopeaphenol [compound 1, reference compound] | 7
(±)-δ-Viniferin [compound 9] | 15

What follows are compounds tested on Y. pseudotuberculosis serotype III strain YPIII(pIB102E-lux). Conditions: not given.
Format: cell-based, Yersinia pseudotuberculosis

Compound | Growth inhibition
Oc1ccc([C@@H]2Cc3cc(O)cc4c3[C@H](c3cc(O)cc(O)c32)[C@@H](c2ccc(O)cc2)O4)cc1 (racemic) [compound 3, (±)-Ampelopsin B] | No
Oc1ccc(/C=C/c2cc(O)cc3c2[C@@H](c2cc(O)cc(O)c2)[C@H](c2ccc(O)cc2)O3)cc1 (racemic) [compound 6, (±)-ε-Viniferin] | No
Oc1ccc(/C=C/c2cc(O)cc3c2[C@@H](c2cc(O)cc(O)c2)[C@H](c2ccc(O)cc2)O3)cc1 (racemic) [compound 7, (±)-Cis-ε-viniferin (Omega-viniferin)] | No
(±)-Dehydro-ampelopsin B [compound 4] | No
Anigopreissin A [compound 11] | detrimental effect on bacterial growth and Yes

Same assay, conditions: Y. pseudotuberculosis, LB with 2.5 mM CaCl2, 37 °C, OD600 up to 24 h

Compound | Growth inhibition
Oc1ccc([C@H]2c3c(O)cc(O)cc3[C@H]3c4c(cc(O)cc4[C@@H]2O)O[C@@H]3c2ccc(O)cc2)cc1 (racemic) [compound 2, (±)-Ampelopsin A] | No
Oc1ccc(/C=C/c2cc(O)cc3c2[C@@H](c2cc(O)cc(O)c2)[C@H](c2ccc(O)cc2)O3)cc1 [compound 5, (+)-ε-Viniferin] | No
Oc1ccc(/C=C\c2cc(O)cc3oc(-c4ccc(O)cc4)c(-c4cc(O)cc(O)c4)c23)cc1 [compound 8, Viniferifuran] | without any effect on bacterial growth and No
(-)-Hopeaphenol [compound 1, reference compound] | No
(±)-δ-Viniferin [compound 9] | No

What follows are compounds tested on secretion of Yop effector proteins (T3SS), YPIII(pIB102). Conditions: 40 µM, Western blot.
Format: cell-based, Yersinia pseudotuberculosis

Compound | Reversibility of block of effector secretion (T3SS) after washing
Oc1ccc(/C=C\c2cc(O)cc3oc(-c4ccc(O)cc4)c(-c4cc(O)cc(O)c4)c23)cc1 [compound 8, Viniferifuran] | irreversibly block secretion of effector molecules
(-)-Hopeaphenol [compound 1, reference compound] | irreversibly block secretion of effector molecules

Same assay, conditions: 40 µM, Western blot; listed as (-)-hopeaphenol

Compound | Reversibility of block of effector secretion (T3SS) after washing
(-)-Hopeaphenol [compound 1, reference compound] | irreversible

Same assay, conditions: 40 µM, Western blot; listed as viniferifuran

Compound | Reversibility of block of effector secretion (T3SS) after washing
Oc1ccc(/C=C\c2cc(O)cc3oc(-c4ccc(O)cc4)c(-c4cc(O)cc(O)c4)c23)cc1 [compound 8, Viniferifuran] | irreversible

These compounds were tested on Y. pseudotuberculosis YPIII(pIB102; pFU95). Conditions: not given.
Format: cell-based, Yersinia pseudotuberculosis

Compound | Binding to bacteria | Competition of binding by free viniferifuran
C#CCOc1ccc(-c2oc3cc(O)cc(/C=C/c4ccc(O)cc4)c3c2-c2cc(O)cc(O)c2)cc1 [compound 13, Propagylated viniferifuran] | clear binding | binding could be outcompeted

Each compound was assayed on ExoS expression (T3SS), PAK(pCS500). Conditions: read-out: IC50 ExoS-gfp.
Format: cell-based, Pseudomonas aeruginosa

Compound | IC50 [µM]
Oc1ccc([C@H]2c3c(O)cc(O)cc3[C@H]3c4c(cc(O)cc4[C@@H]2O)O[C@@H]3c2ccc(O)cc2)cc1 (racemic) [compound 2, (±)-Ampelopsin A] | > 200
Oc1ccc([C@@H]2Cc3cc(O)cc4c3[C@H](c3cc(O)cc(O)c32)[C@@H](c2ccc(O)cc2)O4)cc1 (racemic) [compound 3, (±)-Ampelopsin B] | 134
Oc1ccc(/C=C/c2cc(O)cc3c2[C@@H](c2cc(O)cc(O)c2)[C@H](c2ccc(O)cc2)O3)cc1 (racemic) [compound 6, (±)-ε-Viniferin] | 89
Oc1ccc(/C=C\c2cc(O)cc3oc(-c4ccc(O)cc4)c(-c4cc(O)cc(O)c4)c23)cc1 [compound 8, Viniferifuran] | 11
Oc1ccc(-c2oc3ccc(/C=C/c4cc(O)cc(O)c4)cc3c2-c2cc(O)cc(O)c2)cc1 [compound 10, Dehydro-δ-viniferin] | 8
(-)-Hopeaphenol [compound 1, reference compound] | 9
(±)-Dehydro-ampelopsin B [compound 4] | 33
Anigopreissin A [compound 11] | 15

The compounds below were run on P. aeruginosa PAK(pCS500). Conditions: not given.
Format: cell-based, Pseudomonas aeruginosa

Compound | Tocxicity P.a.
Oc1ccc([C@H]2c3c(O)cc(O)cc3[C@H]3c4c(cc(O)cc4[C@@H]2O)O[C@@H]3c2ccc(O)cc2)cc1 (racemic) [compound 2, (±)-Ampelopsin A] | No
Oc1ccc([C@@H]2Cc3cc(O)cc4c3[C@H](c3cc(O)cc(O)c32)[C@@H](c2ccc(O)cc2)O4)cc1 (racemic) [compound 3, (±)-Ampelopsin B] | No
Oc1ccc(/C=C/c2cc(O)cc3c2[C@@H](c2cc(O)cc(O)c2)[C@H](c2ccc(O)cc2)O3)cc1 (racemic) [compound 6, (±)-ε-Viniferin] | No
Oc1ccc(/C=C\c2cc(O)cc3oc(-c4ccc(O)cc4)c(-c4cc(O)cc(O)c4)c23)cc1 [compound 8, Viniferifuran] | No
Oc1ccc(-c2oc3ccc(/C=C/c4cc(O)cc(O)c4)cc3c2-c2cc(O)cc(O)c2)cc1 [compound 10, Dehydro-δ-viniferin] | No
(-)-Hopeaphenol [compound 1, reference compound] | No
(±)-Dehydro-ampelopsin B [compound 4] | No
Anigopreissin A [compound 11] | No

What follows are compounds tested on J774 cells. Conditions: not given.

Compound | Toxicity J774
Oc1ccc([C@H]2c3c(O)cc(O)cc3[C@H]3c4c(cc(O)cc4[C@@H]2O)O[C@@H]3c2ccc(O)cc2)cc1 (racemic) [compound 2, (±)-Ampelopsin A] | No
Oc1ccc([C@@H]2Cc3cc(O)cc4c3[C@H](c3cc(O)cc(O)c32)[C@@H](c2ccc(O)cc2)O4)cc1 (racemic) [compound 3, (±)-Ampelopsin B] | No
Oc1ccc(/C=C/c2cc(O)cc3c2[C@@H](c2cc(O)cc(O)c2)[C@H](c2ccc(O)cc2)O3)cc1 (racemic) [compound 6, (±)-ε-Viniferin] | No
Oc1ccc(/C=C\c2cc(O)cc3oc(-c4ccc(O)cc4)c(-c4cc(O)cc(O)c4)c23)cc1 [compound 8, Viniferifuran] | Tox
Oc1ccc(-c2oc3ccc(/C=C/c4cc(O)cc(O)c4)cc3c2-c2cc(O)cc(O)c2)cc1 [compound 10, Dehydro-δ-viniferin] | Tox
(±)-Dehydro-ampelopsin B [compound 4] | No
Anigopreissin A [compound 11] | Some tox

What follows are compounds tested on wild-type P. aeruginosa strain PAK infecting J774 cells. Conditions: not given.

Compound | Efficacy Pa J774
Oc1ccc([C@H]2c3c(O)cc(O)cc3[C@H]3c4c(cc(O)cc4[C@@H]2O)O[C@@H]3c2ccc(O)cc2)cc1 (racemic) [compound 2, (±)-Ampelopsin A] | No
Oc1ccc([C@@H]2Cc3cc(O)cc4c3[C@H](c3cc(O)cc(O)c32)[C@@H](c2ccc(O)cc2)O4)cc1 (racemic) [compound 3, (±)-Ampelopsin B] | No
Oc1ccc(/C=C/c2cc(O)cc3c2[C@@H](c2cc(O)cc(O)c2)[C@H](c2ccc(O)cc2)O3)cc1 (racemic) [compound 6, (±)-ε-Viniferin] | No
Oc1ccc(/C=C/c2cc(O)cc3c2[C@@H](c2cc(O)cc(O)c2)[C@H](c2ccc(O)cc2)O3)cc1 [compound 5, (+)-ε-Viniferin] | modest or no efficacy
(±)-Dehydro-ampelopsin B [compound 4] | No

Same assay, conditions: 50 µM

Compound | Inhibition of T3SS-mediated cytotoxicity
(-)-Hopeaphenol [compound 1, reference compound] | complete inhibition of cytotoxicity
